Laboratory results: US20160045513A1, “ISOXAZOLE COMPOUND FOR THE TREATMENT OF CANCER” (Novartis AG, priority 2007, published 2016)

Tests used:
Experiment in all cases: clonogenic assay, human tumor xenografts in vitro
Format in all cases: cell-based
[1] = system: CXF 158; conditions: CXF158, Colon, CXF 158, Adeno carcinoma, soft agar, read-out: IC50 (nM), colony formation
Protocol: (§1) The anticancer activity of 5-(2,4-Dihydroxy-5-isopropyl-phenyl)-4-(4-morpholin-4-ylmethyl-phenyl)-isoxazole-3-carboxylic acid ethylamide is evaluated in 30 human tumor xenografts in vitro using a clonogenic assay. In this assay, human cells derived from cancer patients are evaluated for the capacity of 5-(2,4-Dihydroxy-5-isopropyl-phenyl)-4-(4-morpholin-4-ylmethyl-phenyl)-isoxazole-3-carboxylic acid ethylamide to inhibit the formation of 3 dimensional colonies. […] The tumor xenografts which have never been cultured in cell culture plastic dishes are isolated from nude mice. Tumor cell suspensions are prepared and incubated in 24 well plates containing layers of soft agar. Under these conditions a special subpopulation of cells selectively grows to colonies. 5-(2,4-Dihydroxy-5-isopropyl-phenyl)-4-(4-morpholin-4-ylmethyl-phenyl)-isoxazole-3-carboxylic acid ethylamide was tested in 6 concentrations up to […]. The tumor test panel comprises 1 to 6 models of 10 different human tumor or cancer types, which were bladder cancer, colon, liver, non small cell lung (adeno, squamous epithelium and large cell), small cell lung, mammary, ovary, pancreatic, melanoma and pleuramesothelioma. Antitumor effects are recorded as inhibition of colony formation in relation to untreated controls. Further information on the method has been published (Burger et al., 2004; Fiebig et al., 2004; Smith et al., 2005).
(§2) The cells are continually exposed to 5-(2,4-Dihydroxy-5-isopropyl-phenyl)-4-(4-morpholin-4-ylmethyl-phenyl)-isoxazole-3-carboxylic acid ethylamide and colony formation is determined.

[2] = system: CXF 1103; conditions: CXF1103, Colon, CXF 1103, Adeno carcinoma, soft agar, read-out: IC50 (nM), colony formation
Protocol: as §1, §2

[3] = system: LXFE 1422; conditions: Lung, non-small cell, LXFE 1422, Squamous cell carcinoma, soft agar, read-out: IC50 (nM), colony formation
Protocol: as §1, §2

[4] = system: LXFL 1647; conditions: Lung, non-small cell, LXFL 1647, Large cell lung carcinoma, soft agar, read-out: IC50 (nM), colony formation
Protocol: as §1, §2

[5] = system: LXFS 615; conditions: Lung, small cell, LXFS 615, Small cell lung carcinoma, soft agar, read-out: IC50 (nM), colony formation
Protocol: as §1, §2

[6] = system: MEXF 1539; conditions: Melanoma, MEXF 1539, Melanoma, soft agar, read-out: IC50 (nM), colony formation
Protocol: as §1, §2

[7] = system: BXF 1218; conditions: Bladder, BXF 1218, Transitional cell carcinoma, soft agar, read-out: IC50 (nM), colony formation
Protocol: as §1, §2

[8] = system: LIXF 575; conditions: Liver, LIXF 575, Hepatocellular carcinoma, soft agar, read-out: IC50 (nM), colony formation
Protocol: as §1, §2

[9] = system: MEXF 989; conditions: Melanoma, MEXF 989, Amelanotic melanoma, soft agar, read-out: IC50 (nM), colony formation
Protocol: as §1, §2

[10] = system: CXF 1784; conditions: Colon, CXF 1784, Carcinoma, soft agar, read-out: IC50 (nM), colony formation
Protocol: as §1, §2

[11] = system: BXF 1228; conditions: Bladder, BXF 1228, Transitional cell carcinoma, soft agar, read-out: IC50 (nM), colony formation
Protocol: as §1, §2

[12] = system: MEXF 535; conditions: Melanoma, MEXF 535, Amelanotic melanoma, soft agar, read-out: IC50 (nM), colony formation
Protocol: as §1, §2

[13] = system: CXF 1729; conditions: Colon, CXF 1729, Carcinoma, soft agar, read-out: IC50 (nM), colony formation
Protocol: as §1, §2

[14] = system: OVXF 1544; conditions: Ovary, OVXF 1544, Carcinoma, soft agar, read-out: IC50 (nM), colony formation
Protocol: as §1, §2

[15] = system: PAXF 1657; conditions: Pancreas, PAXF 1657, Adeno carcinoma, soft agar, read-out: IC50 (nM), colony formation
Protocol: as §1, §2

[16] = system: LXFA 297; conditions: Lung, non-small cell, LXFA 297, Adeno carcinoma, soft agar, read-out: IC50 (nM), colony formation
Protocol: as §1, §2

[17] = system: LXFA 629; conditions: Lung, non-small cell, LXFA 629, Adeno carcinoma, soft agar, read-out: IC50 (nM), colony formation
Protocol: as §1, §2

[18] = system: OVXF 1353; conditions: Ovary, OVXF 1353, Adeno carcinoma, soft agar, read-out: IC50 (nM), colony formation
Protocol: as §1, §2

[19] = system: MAXF 1322; conditions: Breast, MAXF 1322, Pap. adeno carcinoma, soft agar, read-out: IC50 (nM), colony formation
Protocol: as §1, §2

[20] = system: LXFA 983; conditions: Lung, non-small cell, LXFA 983, Adeno carcinoma, soft agar, read-out: IC50 (nM), colony formation
Protocol: as §1, §2

[21] = system: LXFS 650; conditions: Lung, small cell, LXFS 650, Small cell lung carcinoma, soft agar, read-out: IC50 (nM), colony formation
Protocol: as §1, §2

[22] = system: MEXF 462; conditions: Melanoma, MEXF 462, Amelanotic melanoma, soft agar, read-out: IC50 (nM), colony formation
Protocol: as §1, §2

[23] = system: PXF 1118; conditions: Pleuramesothelioma, PXF 1118, Biphasic pleuramesothelioma, soft agar, read-out: IC50 (nM), colony formation
Protocol: as §1, §2

[24] = system: LXFA 526; conditions: Lung, non-small cell, LXFA 526, Adeno carcinoma, soft agar, read-out: IC50 (nM), colony formation
Protocol: as §1, §2

- IC50 [1]: 369 nM
- IC50 [2]: 13 nM
- IC50 [3]: 48 nM
- IC50 [4]: 34 nM
- IC50 [5]: 30 nM
- IC50 [6]: 3 nM
- IC50 [7]: 27 nM
- IC50 [8]: 34 nM
- IC50 [9]: 2 nM
- IC50 [10]: 418 nM
- IC50 [11]: 630 nM
- IC50 [12]: 43 nM
- IC50 [13]: 467 nM
- IC50 [14]: 53 nM
- IC50 [15]: 39 nM
- IC50 [16]: 28 nM
- IC50 [17]: 35 nM
- IC50 [18]: 26 nM
- IC50 [19]: 29 nM
- IC50 [20]: 126 nM
- IC50 [21]: 2 nM
- IC50 [22]: 24 nM
- IC50 [23]: 223 nM
- IC50 [24]: 5 nM
SMILES: CCNC(=O)c1noc(-c2cc(C(C)C)c(O)cc2O)c1-c1ccc(CN2CCOCC2)cc1 [AUY922, 5-(2,4-Dihydroxy-5-isopropyl-phenyl)-4-(4-morpholin-4-ylmethyl-phenyl)-isoxazole-3-carboxylic acid ethylamide]
